Measured values published in ChEMBL document CHEMBL3046003, “Synthesis and antifungal activities of novel 5-amino-6-arylamino-1H-pyrazolo[3,4-d]pyrimidin-4(5H)-one derivatives” (2008).

How the values were obtained:
Assay type in all cases: functional
Conditions in all cases: read-out: GI
Botrytis cinerea [1] = assay: Antifungal activity against Botryotinia fuckeliana assessed as growth inhibition at 50 mg/L
Sclerotinia sclerotiorum [2] = assay: Antifungal activity against Sclerotinia sclerotiorum assessed as growth inhibition at 10 mg/L
Sclerotinia sclerotiorum [3] = assay: Antifungal activity against Sclerotinia sclerotiorum assessed as growth inhibition at 50 mg/L
Pyricularia oryzae = assay: Antifungal activity against Magnaporthe oryzae assessed as growth inhibition at 50 mg/L
Fusarium graminearum = assay: Antifungal activity against Fusarium graminearum assessed as growth inhibition at 50 mg/L
Botrytis cinerea [4] = assay: Antifungal activity against Botryotinia fuckeliana assessed as growth inhibition at 10 mg/L

## CSc1nn(-c2ccccc2)c2nc3n(-c4cccc(Cl)c4)cnn3c(=O)c12
Botrytis cinerea [1]
  inhibition of growth at 50 µg/mL: 99%
Sclerotinia sclerotiorum [2]
  inhibition of growth at 10 µg/mL: 82%
Sclerotinia sclerotiorum [3]
  inhibition of growth at 50 µg/mL: 100%
Pyricularia oryzae
  inhibition of growth at 50 µg/mL: 57%
Fusarium graminearum
  inhibition of growth at 50 µg/mL: 74%
Botrytis cinerea [4]
  inhibition of growth at 10 µg/mL: 71%

## CSc1nn(-c2ccccc2)c2nc3n(-c4cccc(C)c4)cnn3c(=O)c12
Botrytis cinerea [1]
  inhibition of growth at 50 µg/mL: 97%
Sclerotinia sclerotiorum [2]
  inhibition of growth at 10 µg/mL: 73%
Sclerotinia sclerotiorum [3]
  inhibition of growth at 50 µg/mL: 98%
Pyricularia oryzae
  inhibition of growth at 50 µg/mL: 70%
Fusarium graminearum
  inhibition of growth at 50 µg/mL: 50%
Botrytis cinerea [4]
  inhibition of growth at 10 µg/mL: 74%

## CSc1nn(-c2ccccc2)c2nc(Nc3ccc(F)cc3)n(N)c(=O)c12
Botrytis cinerea [1]
  inhibition of growth at 50 µg/mL: 45%
Sclerotinia sclerotiorum [2]
  inhibition of growth at 10 µg/mL: 72%
Sclerotinia sclerotiorum [3]
  inhibition of growth at 50 µg/mL: 94%
Pyricularia oryzae
  inhibition of growth at 50 µg/mL: 43%
Fusarium graminearum
  inhibition of growth at 50 µg/mL: 20%
Botrytis cinerea [4]
  inhibition of growth at 10 µg/mL: 9%

## CSc1nn(-c2ccccc2)c2nc(Nc3ccccc3F)n(N)c(=O)c12
Botrytis cinerea [1]
  inhibition of growth at 50 µg/mL: 93%
Sclerotinia sclerotiorum [2]
  inhibition of growth at 10 µg/mL: 73%
Sclerotinia sclerotiorum [3]
  inhibition of growth at 50 µg/mL: 97%
Pyricularia oryzae
  inhibition of growth at 50 µg/mL: 62%
Fusarium graminearum
  inhibition of growth at 50 µg/mL: 51%
Botrytis cinerea [4]
  inhibition of growth at 10 µg/mL: 69%

## CSc1nn(-c2ccccc2)c2nc(Nc3cccc(F)c3)n(N)c(=O)c12
Botrytis cinerea [1]
  inhibition of growth at 50 µg/mL: 87%
Sclerotinia sclerotiorum [2]
  inhibition of growth at 10 µg/mL: 75%
Sclerotinia sclerotiorum [3]
  inhibition of growth at 50 µg/mL: 96%
Pyricularia oryzae
  inhibition of growth at 50 µg/mL: 43%
Fusarium graminearum
  inhibition of growth at 50 µg/mL: 43%
Botrytis cinerea [4]
  inhibition of growth at 10 µg/mL: 56%

## Nn1c(Nc2ccc(F)cc2)nc2c(c(SCc3ccccc3)nn2-c2ccccc2)c1=O
Botrytis cinerea [1]
  inhibition of growth at 50 µg/mL: 55%
Sclerotinia sclerotiorum [2]
  inhibition of growth at 10 µg/mL: 52%
Sclerotinia sclerotiorum [3]
  inhibition of growth at 50 µg/mL: 83%
Pyricularia oryzae
  inhibition of growth at 50 µg/mL: 29%
Fusarium graminearum
  inhibition of growth at 50 µg/mL: 34%
Botrytis cinerea [4]
  inhibition of growth at 10 µg/mL: 12%

## Nn1c(Nc2ccccc2F)nc2c(c(SCc3ccccc3)nn2-c2ccccc2)c1=O
Botrytis cinerea [1]
  inhibition of growth at 50 µg/mL: 64%
Sclerotinia sclerotiorum [2]
  inhibition of growth at 10 µg/mL: 33%
Sclerotinia sclerotiorum [3]
  inhibition of growth at 50 µg/mL: 71%
Pyricularia oryzae
  inhibition of growth at 50 µg/mL: 14%
Fusarium graminearum
  inhibition of growth at 50 µg/mL: 40%
Botrytis cinerea [4]
  inhibition of growth at 10 µg/mL: 18%

## Nn1c(Nc2cccc(F)c2)nc2c(c(SCc3ccccc3)nn2-c2ccccc2)c1=O
Botrytis cinerea [1]
  inhibition of growth at 50 µg/mL: 69%
Sclerotinia sclerotiorum [2]
  inhibition of growth at 10 µg/mL: 40%
Sclerotinia sclerotiorum [3]
  inhibition of growth at 50 µg/mL: 82%
Pyricularia oryzae
  inhibition of growth at 50 µg/mL: 14%
Fusarium graminearum
  inhibition of growth at 50 µg/mL: 46%
Botrytis cinerea [4]
  inhibition of growth at 10 µg/mL: 20%

## CSc1nn(-c2ccccc2)c2nc(Nc3ccccc3)n(N)c(=O)c12
Botrytis cinerea [1]
  inhibition of growth at 50 µg/mL: 13%
Sclerotinia sclerotiorum [2]
  inhibition of growth at 10 µg/mL: 51%
Sclerotinia sclerotiorum [3]
  inhibition of growth at 50 µg/mL: 84%
Pyricularia oryzae
  inhibition of growth at 50 µg/mL: 36%
Fusarium graminearum
  inhibition of growth at 50 µg/mL: 14%
Botrytis cinerea [4]
  inhibition of growth at 10 µg/mL: 3%

## Nn1c(Nc2ccccc2)nc2c(c(SCc3ccccc3)nn2-c2ccccc2)c1=O
Botrytis cinerea [1]
  inhibition of growth at 50 µg/mL: 60%
Sclerotinia sclerotiorum [2]
  inhibition of growth at 10 µg/mL: 31%
Sclerotinia sclerotiorum [3]
  inhibition of growth at 50 µg/mL: 72%
Pyricularia oryzae
  inhibition of growth at 50 µg/mL: 50%
Fusarium graminearum
  inhibition of growth at 50 µg/mL: 29%
Botrytis cinerea [4]
  inhibition of growth at 10 µg/mL: 12%
